Measured values: patent publication US20240300980A1, “HETEROCYCLIC COMPOUNDS AS KRAS INHIBITOR, AND PREPARATION THEREFOR AND USE THEREOF IN TREATMENT” (SHANGHAI KECHOW PHARMA, INC., priority 2021, published 2024)
pIC50: −log10 of the molar value. Read-outs that look alike come from different tables or passages of the source.

Tested on: AGS cells (KRAS^G12D)
Assay: Detection of cell proliferation in vitro by MTT/MTS method (cell activity experiment)
Type: cell-based
Settings: AGS cells, MTT/MTS, 3 days of drug treatment, read-out: AGS IC50
Summary of the method: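 KRAS G12D AGS cells seeded at 1000 per well, compound added 24 h later, 0.5% final DMSO. Viability read after 3 days of treatment by MTT (solubilised in DMSO) or MTS, 4 h, absorbance 490 nm. IC50 from dose–response curves versus DMSO control.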

Row | pIC50 (Homo sapiens, AGS, 72 h) | SMILES | pIC50
1 | < 6.00 | [O-][S+]1C2CCC1CN(c1nc(OC[C@@]34CCCN3C[C@H](F)C4)nc3c(F)c(-c4cc(O)cc5ccc(F)c(F)c45)ncc13)C2 (stereo partly drawn) [Example 28, (1R,5S,8R)-3-(7-(7,8-difluoro-3-hydroxynaphthalen-1-yl)-8-fluoro-2-(((2R, 7aS)-2-fluorotetrahydro-1H-pyrrolizin-7a(5H)-yl)methoxy)pyrido[4,3-d]pyrimidin-4-yl)-8-thia-3-azabicyclo [3.2.1]octane 8-oxide] | –
2 | – | CCC1CCCc2cc(O)cc(-c3ccc4c(N5C[C@H]6CC[C@@H](C5)N6)nc(OC[C@@]56CCCN5C[C@H](F)C6)nc4c3F)c21 (single isomer, unassigned) [Example 291] | 8.14
3 | 6.49 | CCc1c(F)ccc2cc(O)cc(-c3ncc4c(N5C[C@H]6CC[C@@H](C5)O6)nc(OC[C@@]56CCCN5C[C@H](F)C6)nc4c3F)c12 [Example 13, 4-(4-((1R,5S)-8-oxa-3-azabicyclo[3.2.1]octan-3-yl)-8-fluoro-2-(((2R,7aS)-2-fluorotetrahydro-1H-pyrrolizin-7a(5H)-yl)methoxy)pyrido[4,3-d]pyrimidin-7-yl)-5-ethyl-6-fluoronaphthalen-2-ol] | –
4 | < 5.60 | C#Cc1c(F)ccc2cc(O)cc(-c3ccc4c(N5C[C@H]6CC[C@@H](C5)C6(F)F)nc(OC[C@@]56CCCN5C[C@H](F)C6)nc4c3F)c12 [Example 119, 4-(4-((1R,5S)-8,8-difluoro-3-azabicyclo [3.2.1]octan-3-yl)-8-fluoro-2-(((2R,7aS)-2-fluorotetrahydro-1H-pyrrolizin-7a(5H)-yl)methoxy)quinazolin-7-yl)-5-ethynyl-6-fluoronaphthalen-2-ol] | –
5 | < 5.60 | C#Cc1cccc2cc(O)cc(-c3ncc4c(N5C[C@H]6CC[C@@H](C5)C6(F)F)nc(OC[C@@]56CCCN5C[C@H](F)C6)nc4c3F)c12 [Example 32, 4-(4-((1R,5S)-8,8-difluoro-3-azabicyclo [3.2.1]octan-3-yl)-8-fluoro-2-(((2R,7aS)-2-fluorotetrahydro-1H-pyrrolizin-7a(5H)-yl)methoxy)pyrido[4,3-d]pyrimidin-7-yl)-5-ethynylnaphthalen-2-ol] | –
6 | < 5.60 | CCc1c(F)ccc2cc(O)cc(-c3ccc4c(N5CC6CCC(C5)[S+]6[O-])nc(OC[C@@]56CCCN5C[C@H](F)C6)nc4c3F)c12 (stereo partly drawn) [Example 162, (1R,5S,8R)-3-(7-(8-ethyl-7-fluoro-3-hydroxynaphthalen-1-yl)-8-fluoro-2-(((2R,7aS)-2-fluorotetrahydro-1H-pyrrolizin-7a(5H)-yl)methoxy)quinazolin-4-yl)-8-thia-3-azabicyclo[3.2.1]octane 8-oxide] | –

Row | SMILES | pIC50 (Homo sapiens, AGS, 72 h) | pIC50
7 | C#Cc1c(F)ccc2cc(O)cc(-c3ccc4c(N5C[C@H]6CC[C@@H](C5)N6)nc(OC[C@@]56CCCN5C[C@H](F)C6)nc4c3OC3CC3)c12 [Example 327, 4-(4-((1R,5S)-3,8-diazabicyclo[3.2.1]octan-3-yl)-8-cyclopropoxy-2-(((2R,7aS)-2-fluorotetrahydro-1H-pyrrolizin-7a(5H)-yl)methoxy)quinazolin-7-yl)-5-ethynyl-6-fluoronaphthalen-2-ol] | 6.64 | –
8 | CCC1CCc2cc(O)cc(-c3c(F)c4nc(OC[C@@]56CCCN5C[C@H](F)C6)nc(N5C[C@H]6CC[C@@H](C5)N6)c4c4nccn34)c21 (stereo partly drawn) [Example 415, 7-(10-((1R,5S)-3,8-diazabicyclo[3.2.1]octan-3-yl)-6-fluoro-8-(((2R,7aS)-2-fluorotetrahydro-1H-pyrrolizin-7a(5H)-yl)methoxy)imidazo[1′,2′:1,2]pyrido[4,3-d]pyrimidin-5-yl)-1-ethyl-2,3-dihydro-1H-inden-5-ol] | 7.22 | –
9 | CCc1csc2cc(O)cc(-c3ncc4c(N5C[C@H]6CC[C@@H](C5)N6)nc(OC[C@@]56CCCN5C[C@H](F)C6)nc4c3F)c12 [Example 348, 4-(4-((1R,5S)-3,8-diazabicyclo[3.2.1]octan-3-yl)-8-fluoro-2-(((2R,7aS)-2-fluorotetrahydro-1H-pyrrolizin-7a(5H)-yl)methoxy)pyrido[4,3-d]pyrimidin-7-yl)-3-ethylbenzo[b]thiophen-6-ol] | 7.07 | –
